Results reported in patent publication US20210283249A1, “COMBINATION THERAPY FOR CANCER WITH EXON 14 SKIPPING MUTATION(S) OR EXON 14 SKIPPING PHENOTYPE” (Eli Lilly and Company, priority 2016, published 2021).
Where two headings read alike, the source gives them in different places.

Tests used:
[1] = test system: Hs746t-derived xenograft of human gastric carcinoma; experiment: Hs746t xenograft model, Example 2 (sequential and concurrent administration); format: in vivo, mice
Experimental: (§1) Female athymic nude mice (Envigo) are used for this study. Food and water are available ad libitum. Animals are acclimated for 1 week prior to any experimental manipulation. The study is performed in accordance with AAALAC accredited institutional guidelines.
Merestinib is formulated as a solution in 10% PEG 400/90% (20% Captisol in water). Emibetuzumab and IgG control are diluted in PBS. Solutions are freshly prepared every 7 days.
Obtain, maintain, expand, harvest, and wash Hs746t cell as in Example 1. Implant cells into 36 female nu/nu mice at a concentration of 2×10^6 cells in 0.2 ml HBSS subcutaneously into the hind flank of the animal. […] After the 28-day dosing period, animals in the single agent arms are sacrificed. Tumors in the animals in the combination treatment groups are monitored for continued growth or regrowth of tumors.
In these studies, animals are sacrificed using CO2 and cervical dislocation when tumors grow larger than 2000 mm^3, or at the end of study.
Measure tumor volumes and body weight at least twice weeky. Body weight measurement during the course of the study, is a general indicator of tolerability.
(§2) Measure tumor growth with calipers and record body weights twice weekly. Calculate tumor volumes by the formula Volume (mm^3)=L×W^2 (π/6) where L represents the larger diameter and W the smaller diameter. Calculate T/C % using the formula T/C %=100×ΔT/ΔC. Where ΔT=mean tumor volume of the drug-treated group on the final day of the study−mean tumor volume of the drug-treated group on the initial day of the dosing and ΔC=mean tumor volume of the control group on the final day of the study−mean tumor volume of the control group on the initial day of the dosing. Calculate changes in body weight by the formula (Weight on observation day−Weight on day 12)/Weight on Day 12×100. Calculate test for significant differences between treatment groups by RM ANOVA using the JMP (v.9.0.3) statistical package (SAS Institute Inc., Cary, N.C., USA).
Transform tumor volume to the log scale to equalize variance across time and treatment groups. Analyze the log volume data with a two-way repeated measures analysis of variance by time and treatment using the MIXED procedures in SAS software (Version 9.3). The correlation model for the repeated measures is spatial power. Compare treated groups to the control group at each time point. The MIXED procedure is also used separately for each treatment group to calculate adjusted means and standard errors at each time point. Both analyses account for the autocorrelation within each animal and the loss of data that occurs when animals are removed or lost before the end of the study. The adjusted means and standard errors are plotted for each treatment group versus time. […]

[2] = test system: Hs746t-derived xenograft of human gastric carcinoma; experiment: Hs746t xenograft model, Example 1 (combination vs monotherapy); format: in vivo, mice
Experimental: (§3) Hs746t is a gastric cancer cell line known to have MET exon 14 skipping mutation(s) and MET amplification (Asaoka et al., Biochem Biophys Res Commun 394:1042-1046).
as §1
Merestinib is formulated as a solution in 10% PEG 400/90% (20% Captisol in water). Emibetuzumab is diluted in phosphate buffered saline (PBS). Solutions are freshly prepared every 7 days.
Obtain Hs746t cells from ATCC (American Type Culture Collection) and maintain in RPMI 1640 with 10% fetal bovine serum at 37° C. in 5% CO2. Expand cells in culture, harvest, and wash in Hank's Balanced Salt Solution (HBSS, GIBC®). Implant sub-confluent […] cells into 60 female nu/nu mice at a concentration of 1×10^7 cells in 0.2 ml HBSS subcutaneously into the hind flank of the animal.
Administer merestinib by oral gavage at either 6 mg/kg or 12 mg/kg in a dose volume of 0.2 mL in 10% polyethylene glycol 400/90% of a mixture of 20% Captisol in water, and antibody treatments by intraperitoneal injection (IP) starting on day 12 after tumor cell implantation when average tumor volume of 350 mm^3 and ending on Day 33. Inject animals IP in a dosing volume of 10 mg/kg. After 14 days of dosing (Study Day 27), the animals in the control group are sacrificed because of tumor volumes exceeding >2000 mm^3. After the 28-day dosing period, animals in the single agent arms are sacrificed. […]
In both studies, animals are sacrificed using CO2 and cervical dislocation when tumors grow larger than 2000 mm^3, or at the end of study.
Record tumor growth and body weight changes at least twice a week. Body weight measurement during the course of the study, is a general indicator of tolerability.
as §2, with “RMANOVA” for “RM ANOVA”
The p-value from the 2×2 interaction test on day 28 is not significant at p=0.654. All pairwise comparisons between the combination group and each single agent group on day 33 are also statistically significant. […] Full statistical analysis is not feasible as the animals in the vehicle control groups were removed after 14 days of dosing as the animals are sacrificed due to tumor burden.

Hs746t cells = experiment: Hs746t cell proliferation; format: cell-based, human
Text: as §3

pMET = pMET in Hs746t cells; format: cell-based, human

Compound | tumor volume on re-growth while on treatment ([1]; merestinib 6 mg/kg qd single agent, by Day 37) | maximal tumor regression ([1]; merestinib 6 mg/kg qd, Day 27 (7 days of dosing)) [%] | tumor response course ([2]; merestinib 6 mg/kg qd orally) | T/C ([2]; merestinib 6 mg/kg qd orally, after 21 day dosing) [%] | mice with no tumor regrowth ([2]; merestinib 12 mg/kg cohort, during the 5 weeks post-treatment) | tumor regression ([2]; merestinib 12 mg/kg qd orally, after 21 day dosing) [%] | IC50 (Hs746t cells; Homo sapiens) [µM] | effect on pMET (pMET; at 65-100 nM) | maximum tumor regression ([1]; emibetuzumab 10 mg/kg qw, Day 27) [%] | maximum tumor regression ([1]; emibetuzumab 20 mg/kg qw, Day 37) [%] | tumor response course ([2]; emibetuzumab 10 mg/kg IP qw) | transient tumor regression ([2]; emibetuzumab 10 mg/kg IP qw, after 3 doses) [%] | IC50 (Hs746t cells) [µM] | effect on pMET expression (pMET; at 130-650 nM)
Cc1ccc(C(=O)Nc2ccc(Oc3cc4cnn(C)c4cc3-c3cn[nH]c3)c(F)c2)c(=O)n1-c1ccc(F)cc1 [merestinib, N-(3-Fluoro-4-(1-methyl-6-(1H-pyrazol-4-yl)-1H-indazol-5-yloxy)phenyl)-1-(4-fluorophenyl)-6-methyl-2-oxo-1,2-dihydropyridine-3-carboxamide] | about 500 mm^3 | 30.2 | transient tumor regression followed by re-growth while on treatment | 18.3 | 6/7 | 91.8 | 0.034 | totally eliminates | – | – | – | – | – | –
emibetuzumab: C8-H241-IgG4 anti-human MET antibody: two light chains of SEQ ID NO: 5 and two heavy chains of SEQ ID NO: 7 | – | – | – | – | – | – | – | – | 16.0 | 58.9 | tumors are observed to regrow while on treatment | 37.7 | > 0.1 | no effect
